# From ChEMBL document CHEMBL3784927, “Serum azathioprine and 6-mercaptopurine levels and immunosuppressive activity after azathioprine in uremic patients” (Int J Immunopharmacol, 1986)
# Key:
# [1] = AUC (0 to infinity) in uremic patient (7 patients) at 100 mg, po by gas chromatography-mass spectrometry with multiple detection method; settings: human, in vivo
# [2] = Volume of distribution in uremic patient (15 patients) at 100 mg, iv by gas chromatography-mass spectrometry with multiple detection method; settings: human, in vivo
# [3] = Cmax in uremic patient (15 patients) at 100 mg, iv by gas chromatography-mass spectrometry with multiple detection method; settings: human, in vivo
# [4] = AUC (0 to infinity) in uremic patient (15 patients) at 100 mg, iv by gas chromatography-mass spectrometry with multiple detection method; settings: human, in vivo
# [5] = Cmax in uremic patient (8 patients) at 100 mg, po by gas chromatography-mass spectrometry with multiple detection method; settings: human, in vivo
# [6] = Tmax in uremic patient (15 patients) at 100 mg, iv by gas chromatography-mass spectrometry with multiple detection method; settings: human, in vivo
# [7] = Tmax in uremic patient (8 patients) at 100 mg, po by gas chromatography-mass spectrometry with multiple detection method; settings: human, in vivo
# [8] = Total clearance in uremic patient (15 patients) at 100 mg, iv by gas chromatography-mass spectrometry with multiple detection method; settings: human, in vivo
# [9] = Half life in human with good renal function; settings: in vivo
# [10] = Clearance in kidney transplant patient; settings: human, in vivo
# [11] = Terminal phase half life in uremic patient (15 patients) at 100 mg, iv by gas chromatography-mass spectrometry with multiple detection method; settings: human, in vivo
# [12] = Primary phase half life in uremic patient (13 patients) at 100 mg, iv by gas chromatography-mass spectrometry with multiple detection method; settings: human, in vivo
smiles,measurement,setting,value
Cn1cnc([N+](=O)[O-])c1Sc1ncnc2nc[nH]c12 [AZATHIOPRINE],AUC(0-inf),[1],0.164 µM·h
same,Vd,[2],438 L
same,Cmax,[3],3140 nM
same,AUC(0-inf),[4],1.04 µM·h
same,Cmax,[5],180 nM
same,Tmax,[6],5 min
same,Tmax,[7],15 min
same,clearance,[8],6920 mL/min
same,half-life,[9],10 min
same,clearance,[10],57 mL/min/kg
same,half-life,[11],49.5 min
same,half-life,[12],6.05 min
